According to patent publication US20170266213A1, “USE OF BETA-NICOTINAMIDE MONONUCLEOTIDE IN PREPARATION OF ANTI-AGING DRUGS OR HEALTH-CARE PRODUCTS” (BONTAC BIO-ENGINEERING (SHENZHEN) CO., LTD, priority 2015, published 2017):

Tested on: Kunming mice (aged about 52 weeks)
Assay: Mouse survival test
Type: in vivo
Description: 1.1 Experimental material: β-nicotinamide mononucleotide (NMN)
1.2 Experimental animal: Kunming mice (aged about 52 weeks)
1.3 Administration method:
Blank group: fed on full diet;
Treatment group: fed on full diet supplemented with NMN (containing adjuvants) fully dissolved in water, where a single dose of NMN is 20 mg/Kg body weight/day;
Control group: fed on full diet supplemented with adjuvants equivalent to those in the Treatment group;
Mouse survival test: […] aged 52 weeks were assigned to two groups (that is, a blank control group and a treatment group) at random, each group having 40 animals.
Experimental method: see Function Evaluation procedures and Specification of test methods for health food—(2003 Edition, the Ministry of Health).

For `NC(=O)c1ccc[n+]([C@@H]2O[C@H](COP(=O)([O-])O)[C@@H](O)[C@H]2O)c1` [NMN, β-nicotinamide mononucleotide], the “extension of the lifespan of mice” value (NMN 20 mg/Kg body weight/day, versus blank and control groups (Table 1)) was “about 29%”, the “Morbility over 100 weeks (%)” value (aged 52 weeks at start, NMN 20 mg/Kg body weight/day in full diet, 100 weeks) was 38% and the “Morbility over 120 weeks (%)” value (aged 52 weeks at start, NMN 20 mg/Kg body weight/day in full diet, 120 weeks) was 52%. For the same compound, the “Morbility over 140 weeks (%)” value (aged 52 weeks at start, NMN 20 mg/Kg body weight/day in full diet, 140 weeks) was 61%, the “Morbility over 160 weeks (%)” value (aged 52 weeks at start, NMN 20 mg/Kg body weight/day in full diet, 160 weeks) was 74% and the “Morbility over 180 weeks (%)” value (aged 52 weeks at start, NMN 20 mg/Kg body weight/day in full diet, 180 weeks) was 100%. The “effect on the lifespan of mice (in words)” value (composition containing NMN) was “obviously extend the lifespan of mice”.
